Here are results for one molecule from patent publication US20220105096A1, “INHIBITORS OF HUMAN IMMUNODEFICIENCY VIRUS REPLICATION” (ViiV HEALTHCARE UK (NO.5) LIMITED, priority 2019, published 2022).

Data set [1] has as its system recombinant NL4-3 virus. Kind of data set: Antiviral potency in MT-2 cells infected with recombinant NL4-3 Renilla luciferase virus. Type of data set: cell-based, HIV. Particulars: Human immunodeficiency virus 1, NL43, MT2. How it is done: MT-2 cells, 293T cells and the proviral DNA clone of NL4-3 virus were obtained from the NIH AIDS Research and Reference Reagent Program. MT-2 cells were propagated in RPMI 1640 media supplemented with 10% heat inactivated fetal bovine serum (FBS), […]. The 293T cells were propagated in DMEM media supplemented with 10% heat inactivated FBS, […] penicillin G and […] streptomycin. A recombinant NL4-3 proviral clone, in which a section of the nef gene was replaced with the Renilla luciferase gene, was used to make the reference virus used in these studies. The recombinant virus was prepared through transfection of the recombinant NL4-3 proviral clone into 293T cells using Transit-293 Transfection Reagent from Mirus Bio LLC (Madison, Wis.). Supernatant was harvested after 2-3 days and the amount of virus present was titered in MT-2 cells using luciferase enzyme activity as a marker by measuring luciferase enzyme activity. Luciferase was quantitated using the EnduRen Live Cell Substrate from Promega (Madison, Wis.). Antiviral activities of compounds toward the recombinant virus were quantified by measuring luciferase activity in MT-2 cells infected for 4-5 days with the recombinant virus in the presence of serial dilutions of the compound. […]

A short description of data set [2]: Pharmacokinetic parameters in vivo, monkey. Details: species or system Cynomolgus monkeys. As for the experimental part: PK was investigated in male CD1 mice, Wistar Han Rats, Cynomolgus monkeys, and Beagle Dogs. Two groups of animals (N=3 per group) received test compound either as an intravenous (IV) dose (1 mg/kg) or by oral gavage (5 mg/kg solution and suspension). Drug was formulated in 90% PEG 400, 10% ethanol for IV administration and in 90% PEG400, 5% ethanol for PO administration. Blood samples were collected at 0.167, 0.25, 0.5, 0.75, 1, 2, 3, 5, 7, 24, 48, 72 and 96 h post dose for IV; 0.25, 0.5, 0.75, 1, 2, 3, 5, 7, 24, 48, 72 and 96 h post dose for oral. Blood samples were collected into K3EDTA tubes and centrifuged at 1500 to 2000×g to obtain plasma. Plasma samples were stored at −20° C. until analysis by LC-MS/MS. All […] samples were injected on an Exion LC 4500 Triple Quad™ LC-MS/MS system. The analytical column used was a Phenomenex C18 (C18, 4.6 mm×50 mm, 5 μm) maintained at room temperature. Mobile Phase A consisted of 0.1% (v/v) formic acid in MilliQ water. Mobile Phase B consisted of 100% methanol. The flow rate was 1 mL/min. […] All LC-MS/MS analysis parameters are captured electronically in the raw data files. The PK parameters were obtained by non-compartmental analysis of plasma concentration vs time data (Phoenix WinNonlin v8). The peak concentration (Cmax) and time for Cmax (Tmax) were recorded directly from experimental observations. The area under the curve from time zero to the last sampling time [AUC0-T] and the area under the curve from time zero to infinity [AUCINF] were calculated using a combination of linear and log trapezoidal summations. The total plasma clearance (CLTp), steady-state volume of distribution (Vss), apparent elimination half-life (T-HALF), and mean residence time (MRT) were estimated after IV administration. Estimations of AUC and T-HALF were made using a minimum of three timepoints with quantifiable concentrations. The absolute oral bioavailability (F) was estimated as the ratio of dose-normalized AUC values following oral and IV doses.

The test system of data set [3] is human hepatocytes. Kind of data set: Metabolism in human hepatocytes. The data set is classed as in vitro ADME. Conditions: 0.5 μM. As for the experimental part: Cryopreserved hepatocytes in suspension from human, monkey, dog, rat and mouse were thawed and diluted in pre-warmed William's Medium E (pH 7.4). Aliquots of the hepatocyte suspension were added to test compound working solutions prepared in pre-warmed William's Medium E (pH 7.4) to achieve final concentrations of 0.5 μM in 0.5×10^6 cells per milliliter and ≤0.25% DMSO. These samples were incubated at 37° C. with 5% carbon dioxide and shaking. The incubations were performed in singlet. At time points 0, 10, 30, 60, 120 and 240 minutes, a 50 μL aliquot of the incubation mixtures was removed and added to a 100 μL solution of acetonitrile containing internal standard and the mixture was then centrifuged at 4° C. and 3500 rpm for 15 minutes. Following completion of the experiment, samples were analyzed by LC-MS/MS. Metabolic stability results were reported as a percentage of parent test compound remaining. This percentage is calculated by dividing the LCMS peak area of test compound following incubation (tx) by the LCMS peak area of test compound at time-zero (t0) just prior to incubation.
The elimination rate constant (k, min^−1) is calculated using nonlinear regression fitting with the following equation: […]
where: C0 is the initial concentration represented as the peak area ratio (test compound peak area/internal standard peak area); Ct is the concentration at t represented as the area ratio (test compound peak area/internal standard peak area); e is the base of the natural logarithm t is the time (min); k is the elimination rate constant (min^−1). The half-life (t1/2, min) is calculated using the following equation: […]
where: k is the elimination rate constant (min^−1). The in vitro intrinsic clearance (CLint, mL/min/million cells) is calculated using the following equation: […]
where: t1/2 is the half-life; n is the number of cells per mL.

Data set [4] in a line: Subcutaneous in vivo PK experiment in rat. Details: species or system Wistar Han Rats. Conditions: subcutaneous injection 20 mg/kg. How it is done:
Drug was formulated in 1% Kolliphor P188/1% PEG3350/3.5% Mannitol/94.5% Water and then administered to Wistar Han Rats as a subcutaneous injection at a dose of 20 mg/kg. Blood samples were collected at 0.167, 0.25, 0.5, 0.75, 1, 2, 3, 5, 7, 24, 48, 72, 96 h, and then every 3 days for up to 122 days. Blood samples were collected into K3EDTA tubes and centrifuged at 1500 to 2000×g to obtain plasma. Plasma samples were stored at −20° C. until analysis by LC-MS/MS.

Where [5] appears, read: cynomolgus monkey, plasma, Monkey, IV 1 mg/kg.

With `Cn1nc(NS(C)(=O)=O)c2c(Cl)ccc(-n3c([C@H](Cc4cc(F)cc(F)c4)NC(=O)Cn4nc(C(F)F)c5c4C(F)(F)[C@@H]4C[C@H]54)nc4nc(OCCC(C)(F)F)ccc4c3=O)c21` (atropisomer, axis not shown; (P)) [Example 1, N—((S)-1-((3P)-3-(4-chloro-1-methyl-3-(methylsulfonamido)-1H-indazol-7-yl)-7-(3,3-difluorobutoxy)-4-oxo-3,4-dihydropyrido[2,3-d]pyrimidin-2-yl)-2-(3,5-difluorophenyl)ethyl)-2-((3bS,4aR)-3-(difluoromethyl)-5,5-difluoro-3b,4,4a,5-tetrahydro-1H-cyclopropa[3,4]cyclopenta[1,2-c]pyrazol-1-yl)acetamide], the EC50 – broadly, the concentration that produces a half-maximal response – in data set [1] stood at 19 ± 6 pM. Also, in data set [2] (setting [5]), the clearance (in general, the rate of elimination divided by the concentration) came out at 8.8 mL/min/kg and the half-life – broadly, the time needed for the level to fall by half in the phase considered – is 0.175 days. Besides, in data set [2] (cynomolgus monkey, plasma, Monkey, IV 1 mg/kg, read-out: Vss), the Vd turned out to be 1.73 L/kg. The bioavailability (as a rule, dose-corrected exposure relative to a reference, in per cent) in data set [2] (cynomolgus monkey, plasma, Monkey, oral gavage 5 mg/kg solution vs IV 1 mg/kg) was determined as 7.92%. For the same molecule, in data set [2] (monkey), the “half-life in circulation higher than Example 60.2” value is “three-fold”. For the same molecule, the “clearance improved relative to Example 60.2” value in data set [2] (monkey, IV) is 2.5 fold. Further, the “intrinsic clearance in human hepatocytes” value in data set [3] is reported as “less than 0.2 mL/min/g liver”. For the same molecule, the “half-life in human hepatocytes” value in data set [3] (0.5×10^6 cells per milliliter) is recorded as “could not be measured”. Besides, in data set [3] (240 minute incubation), the “parent remaining after incubation in human hepatocytes” value is “no metabolism was measurable”. In addition, the half-life in data set [4] (Wistar Han, plasma, sc, read-out: apparent half-life of compound in plasma (converted)) is 50 days. For the same molecule, the “time drug concentrations were maintained above 5 ng/mL” value in data set [4] worked out at 87 days.
